Experimental data reported in PubChem BioAssay AID179 (DTP/NCI, 2004).
Values joined by “and” are separate entries in the source; they are usually repeats but may differ in a detail not shown here. Equal values may be shown once. Active and inactive are the calls of the source.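 Rule for the calls: active = compounds giving half or more protection of infected cells from virus-caused growth loss, again on retest; inactive = the rest.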

Test system: CEM cells HIV-1 protection, formazan growth assay
Assay: NCI AIDS Antiviral Assay
Details: for IC50: measured here: growth of uninfected CEM cells
Outline: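 Steps: treat uninfected and HIV-1-infected human CEM cells at five drug levels; quantify growth by soluble formazan; retest any compound reaching 50% protection; classify actives from the retest.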

| Structure (SMILES) | outcome | EC50 [µM] | IC50 |
| --- | --- | --- | --- |
| CCOC(=O)NN(C(=O)OCC)C(C(=O)C1CCCCC1)N(NC(=O)OCC)C(=O)OCC | inactive | – | – |
| O=C1N(C2CCCCC2)C(=O)N1C1CCCCC1 | – | 8.32 | 17.8 µM |
| C[C@H]1Oc2cc(O)c3ccc(=O)oc3c2C(=O)[C@@H]1C | – | > 200 | 17 µM |
| N#Cc1c(-c2ccccc2)c(-c2ccccc2)cc2c(=O)c3ccc(Cl)cc3[nH]c12 | – | > 33.1 | > 33.1 µM |
| CC12CCC(=O)N1c1cc(Cl)ccc1N2 (stereo unspecified) | – | > 115 | > 115 µM |
| COc1ccc(-c2coc3c4c(ccc3c2=O)OCO4)cc1OC | inactive | – | – |
| N#CC(NNC(=O)Cc1ccccc1)c1cccc(O)c1 (stereo unspecified) | – | > 468 | 158 µM |
| Cc1ccc(C)c(N2C(=O)C(=O)C(c3nc4ccccc4o3)/C(=N\NC(=O)c3ccccc3O)C2=O)c1 (stereo unspecified) | inactive | – | – |
| CC1=CC(=O)C(=CN2C(=O)/C(=C\c3cccnc3)NC2=S)C(=O)O1 | – | > 200 | > 200 µM |
| N#C/C(=C\c1ccc(O)c(O)c1)C(=O)NCCc1ccc(O)c(O)c1 | – | > 200 | 30.9 µM |
| CC(C)(C)c1cc(N=NC(=S)NCc2ccccc2)cc(C(C)(C)C)c1O | – | > 7.08 | > 7.08 µM |
| C[C@H]1c2c(n(C3OC(CO)C(O)C3O)c(=O)[nH]c2=O)O[C@@H]1c1ccccc1 (stereo partly specified) | – | > 200 | > 200 µM |
| COc1ccc(N2C(=O)/C(=C/c3ccc(N(CCC#N)CCC#N)cc3)N=C2c2ccccc2)cc1 | – | > 200 | > 200 µM |
| CCOC(=O)CCCSCCCC(=O)CCCSCCCC(=O)OCC | – | > 447 | 309 µM |
| O=[N+]([O-])c1ccc(-c2ccc(-c3csc(Nc4ccccc4)n3)o2)cc1 | – | > 37.2 | 6.76 µM |
| OC1C(O)C(O)C2(CO2)C(O)C1O (stereo unspecified) | – | > 200 | > 200 µM |
| Cc1cc(OP2(=O)NCc3ccncc3O2)ccc1Cl (stereo unspecified) | – | > 200 | > 200 µM |
| O=[N+]([O-])/C(C(Cl)=C(Cl)Cl)=C(/Nc1ccccc1)SCc1ccccc1 | – | > 200 | 38 µM |
| Cc1cc(N(CCC#N)CCC#N)ccc1/C(N=Nc1ccc(C(=O)O)cc1)=N\NC(=O)c1ccccc1 | – | > 200 | 13.5 µM |
| O=S(=O)(O)C(O)C(O)S(=O)(=O)O (stereo unspecified) | – | > 200 | 79.4 µM |
| CCNC(=O)C(O)C1(O)CCC2[C@@H]3CCC4=CC(=O)C=C[C@]4(C)C3C(O)C[C@@]21C (stereo partly specified) | inactive | – | – |

| Structure (SMILES) | outcome | EC50 [µM] | IC50 |
| --- | --- | --- | --- |
| Cc1cccc(SCc2nc3ccccc3c(C)[n+]2[O-])c1 | – | 13.5 | 52.5 µM |
| COc1ccc(N=Cc2ccc(N(CCC#N)S(=O)(=O)c3ccccc3)cc2C)cc1 | – | > 219 | 112 µM |
| O=C1c2ccccc2C(=O)c2c1ccc1c2N=C(c2ccc(Br)cc2)CC(c2cccc3ccccc23)N1 (stereo unspecified) | – | > 64.6 | > 64.6 µM |
| CCOC(=O)CNC1C(NC(C)=O)C(OC)OC2COC(c3ccccc3)OC21 (stereo unspecified) | inactive | – | – |
| O=C1NC(N2CCCC(CO)C2)=N/C1=C\c1ccc(Cl)cc1 (stereo unspecified) | – | > 200 | 115 µM |
| Cc1[nH]c(=O)[nH]c(=O)c1C(=O)O | – | > 200 | > 200 µM |
| NC(=O)c1c2n(c3ncnc(N)c13)C1OC(CO)C(O)C1S2 (stereo unspecified) | – | > 389 | > 389 µM |
| CC(C)C1CN(C(=O)OCc2ccccc2)C2N1C(=O)C2(C)OCc1ccccc1 (stereo unspecified) | – | > 251 | 97.7 µM |
| Nc1cccc(N=Nc2c(S(=O)(=O)O)cc3cc(Nc4ccc5c(O)c(N=Nc6cccc(N)c6)c(S(=O)(=O)O)cc5c4)ccc3c2O)c1 | inactive | – | – |
| CC(=O)O[C@H]1CCC2[C@@H]3CCC4C(=O)c5[nH]ncc5C[C@]4(C)C3CC[C@@]21C (stereo partly specified) | – | > 87.1 | > 87.1 µM |
| O=C(O)Cn1nnc2c(=O)[nH][nH]c(=O)c21 | – | > 200 | > 200 µM |
| OCc1ccc(C2CC(c3ccco3)=NN2c2ccccc2)o1 (stereo unspecified) | – | > 17 | > 17 µM |
| O=C(Nc1cccc([N+](=O)[O-])c1)/C(=N\NC(=O)c1ccncc1)c1nc2ccc([N+](=O)[O-])cc2[nH]c1=O | – | > 135 | 47.9 µM |
| O=c1ccn(C/C=C/c2ccccc2)c(=S)n1C/C=C/c1ccccc1 | inactive | – | – |
| CC(=O)OCC12C(OC(C)=O)C[C@@H](C)C3(CC(c4ccoc4)OC3=O)C1CCC(O)C21CO1 (stereo partly specified) | – | > 200 | > 200 µM |
| O=C(N/N=C/c1cccc(O)c1O)N/N=C/c1cccc(O)c1O | – | > 200 | 6.76 µM |
| Cc1cc(C)c2c(c1)CC1(Cc3cc(C)c(C)cc3C1=O)C2=O (stereo unspecified) | – | > 100 | > 100 µM |
| O=C(NNC1=NCCCCN1)Nc1ccc(Cl)cc1 | – | 107 | > 200 µM |
| Cc1nc2ccc(F)cc2c2c1CCN2c1ccc(Cl)cc1 | – | > 100 | 5.75 µM |
| COc1cc2ccnc3c(=C(SC)SC)c(=O)c(c1OC)c23 | inactive | – | – |
| CCCN(CCCCC(NC(C)=O)C(=O)NCc1ccccc1)C(=O)N(CCCl)N=O (stereo unspecified) | – | > 79.4 | > 79.4 µM |

| Structure (SMILES) | outcome | EC50 [µM] | IC50 |
| --- | --- | --- | --- |
| CC1=C(C(=O)Nc2ccccc2)C(c2ccc3c(c2)OCO3)C(C(=O)Nc2ccccc2)=C(C)N1 | – | > 11.2 | > 11.2 µM |
| COC(=O)[C@@H]1COC(CC/C(C)=C/c2ccccc2)=N1 | – | > 200 | 44.7 µM |
| Cc1ccc(/C=C2\NC(=S)N(CN3CCCCC3)C2=O)cc1 | – | > 200 | 29.5 µM |
| COc1ccc(-n2c(N)c(C#N)[nH]c2=O)cc1 | – | > 200 | > 200 µM |
| CCNCCNC(=O)c1ccc(Br)cc1 | inactive | – | – |
| N#Cc1ccc(C2NN=CC23C(=O)c2ccccc2OC3c2ccccc2)cc1 (stereo unspecified) | – | > 200 | 64.6 µM |
| O=c1c2ccc(Cl)cc2oc2c(CSc3ccccc3)cccc12 | – | > 200 | 9.77 µM |
| C[n+]1c(-c2ccc(/C=N/Nc3ccnc(N/N=C/c4ccc(-c5cn6ccsc6[n+]5C)cc4)n3)cc2)cn2ccsc21 | – | 11.5 | 41.7 µM |
| Cc1cccc2c(N)c3cccc(C(=O)NCCCNCCN)c3nc12 | – | > 0.2 | 0.12 µM |
| O=C(CC(=O)n1nc(-c2ccccc2)c(N=Nc2ccc(Cl)cc2)c1-c1ccccc1)Nc1ccc(Cl)cc1 | – | > 18.2 | > 18.2 µM |
| CC1OC(c2ccc3c(c2O)C(=O)C2=C(C3=O)[C@H]3OC(=O)C[C@H]3O[C@@H]2C)CC(N(C)C)C1O (stereo partly specified) | – | > 107 | 0.0537 µM |
| C(=Nc1cnc2ccccc2c1)c1ccccn1 | – | > 407 | 102 µM |
| O=S(=O)(OC(=C(c1ccccc1)c1ccccc1)c1ccccc1)C(F)(F)F | – | > 17.8 | > 17.8 µM |
| Cc1cc2c(nn1)CCc1c-2no[n+]1[O-] | – | > 200 | 174 µM |
| c1ccc([P+](CCCCCC[P+](c2ccccc2)(c2ccccc2)c2ccccc2)(c2ccccc2)c2ccccc2)cc1 | – | > 200 | 5.37 µM and 7.24 µM |
| COc1ccc(-n2c(C)nc3ccc(NC4OCC(O)C(O)C4O)cc3c2=O)cc1 (stereo unspecified) | – | > 200 | 69.2 µM and 45.7 µM |
| O=C(Nc1ccc(Cl)cc1Cl)c1cc2nc3ccccc3c(=O)n2c2ccccc12 | – | > 100 | > 100 µM |
| COC(=O)c1c/c(=N\NC(=O)CC(=O)Nc2ccc(C)cc2)c2ccccc2o1 | – | > 631 | > 631 µM |
| CCOC(=O)C(NC(=O)CC)(Nc1ccc(F)cc1F)C(F)(F)F (stereo unspecified) | – | > 200 | > 200 µM |
| O=C(CCc1ccccc1)n1cccc1CO | – | > 200 | 56.2 µM |
| Cc1cc2nnc(C(N)=O)c(N)c2cc1C | – | > 200 | > 200 µM |

| Structure (SMILES) | outcome | EC50 [µM] | IC50 |
| --- | --- | --- | --- |
| NCCCCC(N)C(=O)NCCNc1ccc(NCCNC(=O)C(N)CCCCN)c2c1C(=O)c1ccccc1C2=O (stereo unspecified) | – | > 100 | 3.39 µM |
| O=C(CCc1cc(O)cc(O)c1)NCCc1cc(OCc2ccccc2)cc(OCc2ccccc2)c1 | inactive | – | – |
| Cc1cc2c(C(C)C)c(O)c(O)c(C=Nc3cccc(O)c3)c2c(O)c1-c1c(C)cc2c(C(C)C)c(O)c(O)c(C=Nc3cccc(O)c3)c2c1O | inactive | – | 8.13 µM |
| O=c1[nH]c2cc(Cl)ccc2nc1/C(=N\Nc1ccccc1)C(O)c1ccc(Cl)c(Cl)c1 (stereo unspecified) | – | > 219 | 18.2 µM |
| Cc1ccc(NC(=S)/C(=C(\[O-])c2ccc([N+](=O)[O-])cc2)[n+]2ccc(C(C)C)cc2)c(C)c1 | – | > 200 | 158 µM |
| N#CCC(=O)N/N=C(\CCN1CCCC1)CC(c1ccccc1)c1c(O)c2ccccc2oc1=O (stereo unspecified) | – | > 97.7 | 55 µM |
| COc1cc(NS(=O)(=O)c2ccc(NC(=O)c3ccccc3SC(=O)CCCC[n+]3ccccc3)cc2)nc(OC)n1 | – | 26.9 | 60.3 µM |
| Cc1ccc(C)c(COCCOCn2c(=O)[nH]c(=O)c3cc(Br)ccc32)c1 | – | > 200 | > 200 µM |
| CC1CC2(S(=O)(=O)c3ccccc3)ON1CC2S(=O)(=O)c1ccccc1 (stereo unspecified) | inactive | – | – |
| NC(Cc1ccc(S(=O)(=O)O)cc1)C(=O)NC(CCCCNC(=O)NCCCCC(NC(=O)C(N)Cc1ccc(S(=O)(=O)O)cc1)C(=O)NC(Cc1ccc(S(=O)(=O)O)cc1)C(=O)O)C(=O)NC(Cc1ccc(S(=O)(=O)O)cc1)C(=O)O (stereo unspecified) | – | > 100 | > 100 µM |
| BrC1=C(Br)C2(SCCS2)[C@H]2C[C@@H]1c1ccccc12 | – | > 200 | 8.71 µM |
| COc1cc([C@@H]2OC(=O)C3C2C(=O)O[C@H]3c2ccc(O)c(OC)c2)ccc1O (stereo partly specified) | inactive | – | – |
| C=C(C)c1nc(C#N)c(N)o1 | – | > 200 | > 200 µM |
| Cc1c(C)c(CC(=O)N2CC2)c(C)c(C)c1CC(=O)N1CC1 | – | > 200 | 0.794 µM |
| COC(=O)C1C(=O)CC[C@H]2CN3CCc4c([nH]c5ccccc45)C3CC12 (stereo partly specified) | – | > 53.7 | > 53.7 µM |
| CCc1ccccc1NC(=O)Nc1cc(C)ccn1 | – | > 200 | 24 µM |
| COc1ccc2nccc3c2c1NC(Cl)=C3 | – | > 200 | 1.58 µM |
| CC(=O)[O-].O=[N+]([O-])c1ccc([O-])c(C=NCCN=Cc2cc([N+](=O)[O-])ccc2[O-])c1.[Mn+3] | – | > 229 | 4.37 µM |
| Cc1nn(-c2ccccc2)c2nc3ccc(Cl)cc3c(-c3ccccc3)c12 | – | > 200 | > 200 µM |
| O=C(O)C1C(C(=O)O)N2C(c3ccccc3)C(C(=O)O)C(C(=O)O)N2C1c1ccccc1 (stereo unspecified) | – | > 214 | > 214 µM |
| CCCCCCNc1n[nH]c(=O)c2c1nnn2Cc1ccccc1 | – | > 200 | > 200 µM |
